Experimental data published in patent US20100056524A1, “Compound” (priority 2008, published 2010).
Where a name gives a salt, the structure may show the parent alone. Read-outs that look alike come from different tables or passages of the source.

Experiments:
PKBa = biological target: T1, PKBa (Homo sapiens, UniProt P31749, S473D); assay: PKBa protein kinase assay; assay type: biochemical; conditions: for remaining activity at 10 µM: 10 μM compound
T1 construct: protein kinase Bα[118-480][S473D]; His6; made in house; host or cells: insect Sf21 cells
T1 sequence (P31749 118-480 S473D): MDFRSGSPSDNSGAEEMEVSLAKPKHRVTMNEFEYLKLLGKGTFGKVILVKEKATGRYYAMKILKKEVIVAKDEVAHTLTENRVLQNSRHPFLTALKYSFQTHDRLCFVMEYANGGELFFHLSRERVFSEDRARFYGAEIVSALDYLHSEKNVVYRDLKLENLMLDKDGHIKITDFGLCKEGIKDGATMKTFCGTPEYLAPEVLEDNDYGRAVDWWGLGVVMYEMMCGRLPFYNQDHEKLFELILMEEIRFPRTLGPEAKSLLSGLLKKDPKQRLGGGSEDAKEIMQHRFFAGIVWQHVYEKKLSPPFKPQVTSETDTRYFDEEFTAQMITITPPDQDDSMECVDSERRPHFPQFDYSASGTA
From the text: (§1) All protein kinases were of human origin and encoded full length proteins, unless indicated otherwise. They were either expressed as glutathione S-transferase (GST) fusion proteins in Escherichia Coli or as hexahistidine (His6)-tagged proteins in insect Sf21 cells. GST fusion proteins were purified by affinity chromatography on glutathione-Sepharose, and His6-tagged proteins on nickel/nitriloacetate-agarose. The procedures for expressing some of the protein kinases used herein have been detailed previously.^8,9 The following sections outline the DNA vectors synthesised and the procedures used to express and purifying protein kinases that have not been reported previously.
The following kinases were expressed in Sf21 cells: Aurora B and Aurora C, extra-cellular signal-regulated kinase 8 (ERK8), microtubule affinity regulating kinase 3 (MARK3), protein kinase Bα[118-480][S473D], protein kinase Bβ (PKBβ[120-481][S474D], 3-phosphoinositide-dependent protein kinase-1 [52-556]
(§2) In order to produce activated forms of Aurora B and Aurora C, insect Sf21 cells were incubated for 1 h with the protein phosphatase inhibitor okadaic acid (50 nM). JNK isoforms were activated with MKK4 and MKK7, MNK2 with p38α MAPkinase; PKBα, PKBβ, with PDK1, and ERK1 with MKK1. To activate CDK2, bacterial pellets expressing cyclin A2 and CDK2 were mixed together, lyse and purified on glutathione Sepharose. The GST-tags were removed by cleavage with PreScission protease and the CDK2-cyclin A2 complex purified by chromatography on SP-Sepharose. It was then activated with CAK1/CDK7 followed by chromatography on nickel-nitrilotriacetate agarose to remove CAK1/CDK7, which binds to this column by virtue of its C-terminal His6 tag. All the other protein kinases were active as expressed.
(§3) All assays (25.5 μl) were carried out at room temperature (21° C.) and were linear with respect to time and enzyme concentration under the conditions used. Assays were performed for 30 min using Multidrop Micro reagent dispensers (Thermo Electron Corporation, Waltham, Mass. 02454, USA) in a 96-well format. The concentration of magnesium acetate in the assays was 10 mM and the [γ-33P] ATP (800 cpm/pmol) was used at 5, 20 or 50 μM as indicated, in order to be at or below the Km for ATP for each enzyme. Protein kinases assayed at 5 μM ATP were: —ERK1, ERK8, PKBα, MARK3, Aurora C. Protein kinases assayed at 20 μM ATP were: —JNK1, PDK1, CHK1, CHK2, CDK2 and Aurora B. Protein kinases assayed at 50 μM ATP were: —MNK2, IKKepsilon and TBK1.
(§4) The assays were initiated with MgATP, stopped by addition of 5 μl of 0.5 M orthophosphoric acid and spotted on to P81 filterplates using a unifilter harvester (PerkinElmer, Boston, Mass. 02118, USA). The IC50 values of inhibitors were determined after carrying out assays at 10 different concentrations of each compound.
(§5) Unless stated otherwise, enzymes were diluted in 50 mM Tris/HCl pH 7.5, 0.1 mM EGTA, 1 mg/ml BSA, 0.1% (v/v) 2-mercaptoethanol and assayed in 50 mM Tris/HCl pH 7.5, 0.1 mM EGTA, 0.1% (v/v) 2-mercaptoethanol.

PIM2 = biological target: T2, PIM2 (Homo sapiens, UniProt Q9P1W9); assay: PIM2 protein kinase assay; assay type: biochemical; conditions: for remaining activity at 10 µM: 10 μM compound; for residual kinase activity PIM2: 1 μm compound; for remaining activity at 1 µM: 1 μM compound
T2 construct: All protein kinases were of human origin and encoded full length proteins, unless indicated otherwise; made in house
T2 sequence (Q9P1W9 whole entry): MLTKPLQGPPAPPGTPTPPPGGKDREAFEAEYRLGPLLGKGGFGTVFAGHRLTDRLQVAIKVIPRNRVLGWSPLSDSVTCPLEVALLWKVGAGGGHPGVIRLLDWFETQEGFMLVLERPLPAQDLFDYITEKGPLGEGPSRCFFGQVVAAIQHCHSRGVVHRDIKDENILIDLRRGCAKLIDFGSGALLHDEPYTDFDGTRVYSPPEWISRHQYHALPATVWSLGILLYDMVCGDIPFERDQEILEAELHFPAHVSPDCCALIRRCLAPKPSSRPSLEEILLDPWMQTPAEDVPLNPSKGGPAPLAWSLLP
From the text: as §1, §3, §4, §5

IGF-1R = IGF-1R protein kinase assay; assay type: biochemical, human; conditions: for residual kinase activity: IGF-1R
From the text: as §1, §3, §4, §5

NEK2a = biological target: T3, NEK2a (Homo sapiens, UniProt P51955); assay: NEK2a protein kinase assay; assay type: biochemical; conditions: for remaining activity at 10 µM: 10 μM compound; for residual kinase activity NEK2a: 1 μm compound; for remaining activity at 1 µM: 1 μM compound
T3 construct: All protein kinases were of human origin and encoded full length proteins, unless indicated otherwise; made in house
T3 sequence (P51955 1-445): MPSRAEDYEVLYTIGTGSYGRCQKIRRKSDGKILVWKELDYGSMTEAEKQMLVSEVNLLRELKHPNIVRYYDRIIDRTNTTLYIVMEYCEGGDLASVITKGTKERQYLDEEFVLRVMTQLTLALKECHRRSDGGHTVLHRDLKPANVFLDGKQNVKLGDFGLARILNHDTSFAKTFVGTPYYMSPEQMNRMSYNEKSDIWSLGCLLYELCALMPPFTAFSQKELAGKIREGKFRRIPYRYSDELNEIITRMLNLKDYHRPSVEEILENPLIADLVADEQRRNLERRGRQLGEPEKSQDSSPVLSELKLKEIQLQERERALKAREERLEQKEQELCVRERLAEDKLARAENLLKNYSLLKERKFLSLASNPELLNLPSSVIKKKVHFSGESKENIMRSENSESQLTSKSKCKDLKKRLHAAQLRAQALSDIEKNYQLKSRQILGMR
From the text: as §1, §3, §4, §5

RSK2 = biological target: T4, RSK2 (Homo sapiens, UniProt P51812); assay: RSK2 protein kinase assay; assay type: biochemical; conditions: for remaining activity at 10 µM: 10 μM compound; for residual kinase activity RSK2: 1 μm compound; for remaining activity at 1 µM: 1 μM compound
T4 construct: All protein kinases were of human origin and encoded full length proteins, unless indicated otherwise; made in house
T4 sequence (P51812 whole entry): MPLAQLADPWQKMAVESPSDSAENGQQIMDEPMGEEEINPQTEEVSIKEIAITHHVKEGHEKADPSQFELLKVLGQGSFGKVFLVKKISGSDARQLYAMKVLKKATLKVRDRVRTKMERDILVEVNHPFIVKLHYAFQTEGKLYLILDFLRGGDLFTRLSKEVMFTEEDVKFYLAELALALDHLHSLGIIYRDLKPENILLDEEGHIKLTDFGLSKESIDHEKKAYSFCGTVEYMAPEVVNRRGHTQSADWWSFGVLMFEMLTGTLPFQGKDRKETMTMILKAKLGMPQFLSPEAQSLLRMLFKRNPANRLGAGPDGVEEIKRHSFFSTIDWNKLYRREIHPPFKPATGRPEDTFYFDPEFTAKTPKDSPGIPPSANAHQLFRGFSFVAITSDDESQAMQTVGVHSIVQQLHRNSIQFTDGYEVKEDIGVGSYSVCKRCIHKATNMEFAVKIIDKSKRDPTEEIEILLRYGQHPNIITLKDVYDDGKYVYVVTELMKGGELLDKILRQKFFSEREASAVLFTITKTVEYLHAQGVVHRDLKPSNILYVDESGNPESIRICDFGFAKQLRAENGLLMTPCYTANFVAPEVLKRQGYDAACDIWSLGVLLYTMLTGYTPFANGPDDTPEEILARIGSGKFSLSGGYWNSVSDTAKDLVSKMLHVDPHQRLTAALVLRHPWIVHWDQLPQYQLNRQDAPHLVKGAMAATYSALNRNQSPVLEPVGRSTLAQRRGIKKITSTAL
From the text: as §1, §3, §4, §5

ERK1 = biological target: T5, ERK1 (Homo sapiens, UniProt P27361); assay: ERK1 protein kinase assay; assay type: biochemical; conditions: for remaining activity at 10 µM: 10 μM compound; for residual kinase activity ERK1: 1 μm compound; for remaining activity at 1 µM: 1 μM compound
T5 construct: All protein kinases were of human origin and encoded full length proteins, unless indicated otherwise; GST; made in house; host or cells: E. coli
T5 sequence (P27361 whole entry): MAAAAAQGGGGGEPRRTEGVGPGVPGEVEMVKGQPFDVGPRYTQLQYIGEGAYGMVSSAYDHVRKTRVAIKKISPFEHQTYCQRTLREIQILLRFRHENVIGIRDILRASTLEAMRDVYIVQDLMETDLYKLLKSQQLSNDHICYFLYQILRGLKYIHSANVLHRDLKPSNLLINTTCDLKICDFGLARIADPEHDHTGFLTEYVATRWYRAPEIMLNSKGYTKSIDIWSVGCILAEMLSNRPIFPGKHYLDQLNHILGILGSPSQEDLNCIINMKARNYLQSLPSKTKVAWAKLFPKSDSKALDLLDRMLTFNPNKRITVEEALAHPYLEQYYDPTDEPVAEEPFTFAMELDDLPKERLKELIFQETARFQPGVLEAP
From the text: as §1
The following proteins were expressed in E. coli: —CHK2[5-543], cyclin-dependent protein kinase 2 (CDK2), MAP kinase-interacting kinase 2 (MNK2), extra-cellular signal-regulated kinase 1 (ERK1).
as §2, §3, §4
ERK1 and ERK8 were both assayed against myelin basic protein (MBP, 0.33 mg/ml). MARK3 was assayed against the peptide […] (300 μM), MNK2 against the eIF4E protein (0.5 mg/ml). PKBβ was assayed against the peptide […] (30 μM). TBK1 were assayed against ([…]) (300 μM). The substrates used for other protein kinases were described previously.^8,9
as §5

CSK = biological target: T6, CSK (Homo sapiens, UniProt P41240); assay: CSK protein kinase assay; assay type: biochemical; conditions: for remaining activity at 10 µM: 10 μM compound; for residual kinase activity CSK: 1 μm compound; for remaining activity at 1 µM: 1 μM compound
T6 construct: All protein kinases were of human origin and encoded full length proteins, unless indicated otherwise; made in house
T6 sequence (P41240 whole entry): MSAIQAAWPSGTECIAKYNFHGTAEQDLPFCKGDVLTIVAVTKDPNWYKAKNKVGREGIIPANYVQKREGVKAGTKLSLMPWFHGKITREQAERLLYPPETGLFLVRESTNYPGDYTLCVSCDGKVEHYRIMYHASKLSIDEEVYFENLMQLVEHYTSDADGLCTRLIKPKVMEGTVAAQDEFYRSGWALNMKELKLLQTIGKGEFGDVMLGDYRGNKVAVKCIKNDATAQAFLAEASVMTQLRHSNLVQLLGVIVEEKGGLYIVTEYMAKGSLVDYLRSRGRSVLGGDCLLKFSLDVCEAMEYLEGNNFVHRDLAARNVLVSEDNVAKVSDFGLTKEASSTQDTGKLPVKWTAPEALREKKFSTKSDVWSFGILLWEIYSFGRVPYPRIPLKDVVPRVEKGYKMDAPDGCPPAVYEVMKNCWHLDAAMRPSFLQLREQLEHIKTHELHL
From the text: as §1, §3, §4, §5

SRPK1 = biological target: T7, SRPK1 (Homo sapiens, UniProt Q96SB4); assay: SRPK1 protein kinase assay; assay type: biochemical; conditions: for remaining activity at 10 µM: 10 μM compound; for residual kinase activity SRPK1: 1 μm compound; for remaining activity at 1 µM: 1 μM compound
T7 construct: All protein kinases were of human origin and encoded full length proteins, unless indicated otherwise; made in house
T7 sequence (Q96SB4 whole entry): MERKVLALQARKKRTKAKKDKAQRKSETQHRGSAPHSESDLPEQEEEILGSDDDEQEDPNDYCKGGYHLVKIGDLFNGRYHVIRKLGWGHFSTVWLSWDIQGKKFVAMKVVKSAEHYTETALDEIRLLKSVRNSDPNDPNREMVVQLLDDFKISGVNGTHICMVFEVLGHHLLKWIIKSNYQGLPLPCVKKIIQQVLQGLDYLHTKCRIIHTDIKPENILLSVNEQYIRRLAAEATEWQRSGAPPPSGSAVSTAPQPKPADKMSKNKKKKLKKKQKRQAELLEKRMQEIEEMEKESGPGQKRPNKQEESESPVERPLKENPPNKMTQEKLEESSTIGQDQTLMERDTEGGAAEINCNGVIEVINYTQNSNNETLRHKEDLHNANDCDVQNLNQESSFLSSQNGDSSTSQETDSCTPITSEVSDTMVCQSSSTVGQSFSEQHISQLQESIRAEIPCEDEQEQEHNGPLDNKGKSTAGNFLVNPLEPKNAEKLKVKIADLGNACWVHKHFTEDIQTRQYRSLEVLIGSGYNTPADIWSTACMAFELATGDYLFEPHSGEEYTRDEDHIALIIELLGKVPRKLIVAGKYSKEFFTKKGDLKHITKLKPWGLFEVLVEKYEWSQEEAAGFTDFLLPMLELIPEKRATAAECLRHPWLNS
From the text: as §1, §3, §4, §5

[1] = read-out: residual kinase activity PKBa
[2] = 1 μm compound, read-out: residual kinase activity PKBa
[3] = read-out: residual kinase activity PIM2
[4] = read-out: residual kinase activity NEK2a
[5] = read-out: residual kinase activity RSK2
[6] = read-out: residual kinase activity ERK1
[7] = read-out: residual kinase activity CSK
[8] = read-out: residual kinase activity SRPK1
[9] = PKBa, 1 μM compound, 5 μM ATP, read-out: residual kinase activity
[10] = PKBa, 5 μM ATP, read-out: residual kinase activity
[11] = PIM2, read-out: residual kinase activity
[12] = NEK2a, read-out: residual kinase activity
[13] = RSK2, read-out: residual kinase activity
[14] = ERK1, 5 μM ATP, read-out: residual kinase activity
[15] = CSK, read-out: residual kinase activity
[16] = SRPK1, read-out: residual kinase activity

Row | Compound | remaining activity at 10 µM (PKBa; [1]) [%] | remaining activity at 1 µM (PKBa; [2]) [%] | remaining activity at 10 µM (PIM2; [3]) [%] | residual kinase activity PIM2 (PIM2) [%] | remaining activity at 1 µM (PKBa; [9]) [%] | remaining activity at 10 µM (PKBa; [10]) [%] | remaining activity at 1 µM (PIM2; [11]) [%] | remaining activity at 10 µM (PIM2; [11]) [%] | residual kinase activity (IGF-1R; 1 μM compound) [%] | residual kinase activity (IGF-1R; 10 μM compound) [%] | remaining activity at 1 µM (NEK2a; [12]) [%] | remaining activity at 10 µM (NEK2a; [12]) [%] | remaining activity at 1 µM (RSK2; [13]) [%] | remaining activity at 10 µM (RSK2; [13]) [%] | remaining activity at 1 µM (ERK1; [14]) [%] | remaining activity at 10 µM (ERK1; [14]) [%] | remaining activity at 1 µM (CSK; [15]) [%] | remaining activity at 10 µM (CSK; [15]) [%] | remaining activity at 1 µM (SRPK1; [16]) [%] | remaining activity at 10 µM (SRPK1; [16]) [%] | further results
1 | O=C(NCCCNc1nc(Nc2cccc(F)c2)ncc1Br)C1CCC1 [Compound A, cyclobutanecarboxylic acid {3-[5-bromo-2-(3-fluoro-phenylamino)-pyrimidin-4-ylamino]-propyl}-amide, reference compound] | 92 | 107 | 75 | 90 | – | – | – | – | – | – | – | – | – | – | – | – | – | – | – | – | residual kinase activity IGF-1R (IGF-1R; 10 μM compound): 21%; residual kinase activity IGF-1R (IGF-1R; 1 μm compound): 78%; remaining activity at 10 µM (NEK2a; [4]): 57%; residual kinase activity NEK2a (NEK2a): 95%; remaining activity at 10 µM (RSK2; [5]): 9%; residual kinase activity RSK2 (RSK2): 38%; remaining activity at 10 µM (ERK1; [6]): 7%; residual kinase activity ERK1 (ERK1): 28%; remaining activity at 10 µM (CSK; [7]): 51%; residual kinase activity CSK (CSK): 86%; remaining activity at 10 µM (SRPK1; [8]): 31%; residual kinase activity SRPK1 (SRPK1): 69%
2 | O=C(NCCCNc1nc(Nc2cccc(F)c2)ncc1C1CC1)C1CCC1 [Example 23, Cyclobutanecarboxylic acid {3-[5-cyclopropyl-2-(3-fluoro-phenylamino)-pyrimidin-4-ylamino]-propyl}-amide] | 91 | 100 | 67 | 74 | 100 | 91 | 74 | 67 | 86 | 87 | 91 | 65 | 44 | 14 | 88 | 75 | 77 | 69 | 75 | 40 | residual kinase activity IGF-1R (IGF-1R; 10 μM compound): 87%; residual kinase activity IGF-1R (IGF-1R; 1 μm compound): 86%; remaining activity at 10 µM (NEK2a; [4]): 65%; residual kinase activity NEK2a (NEK2a): 91%; remaining activity at 10 µM (RSK2; [5]): 14%; residual kinase activity RSK2 (RSK2): 44%; remaining activity at 10 µM (ERK1; [6]): 75%; residual kinase activity ERK1 (ERK1): 88%; remaining activity at 10 µM (CSK; [7]): 69%; residual kinase activity CSK (CSK): 77%; remaining activity at 10 µM (SRPK1; [8]): 40%; residual kinase activity SRPK1 (SRPK1): 75%
3 | O=C(NCCCNc1nc(Nc2cccc(N3CCCC3=O)c2)ncc1C1CC1)c1cccs1 [Example 47, Thiophene-2-carboxylic acid (3-{5-cyclopropyl-2-[3-(2-oxo-pyrrolidin-1-yl)-phenylamino]-pyrimidin-4-ylamino}-propyl)-amide. Hydrochloride salt] | – | – | – | – | 101 | 90 | 101 | 93 | 39 | 35 | 104 | 79 | 65 | 28 | 89 | 81 | 77 | 71 | 81 | 78 | –
4 | O=C(NCCCNc1nc(Nc2cccnc2)ncc1C1CC1)c1cccs1 [Example 50, Thiophene-2-carboxylic acid {3-[5-cyclopropyl-2-(pyridin-3-ylamino)-pyrimidin-4-ylamino]-propyl}-amide] | – | – | – | – | 109 | 97 | 100 | 89 | 47 | 32 | 93 | 71 | 69 | 28 | 99 | 65 | 79 | 60 | 84 | 57 | –
